Tests used:
[1] = Change of pH value of the aqueous solution during storage; format: physicochemical; settings: added to aqueous solution of the calcium salt, pH 6 to 7, during storage
[2] = Transmittance and coloring of the aqueous solution during storage; format: physicochemical; settings: added to aqueous solution of the calcium salt, during storage
Description: The suppressing effect can be attained by the action of ascorbic acid which has been stabilized by sodium pyrosulfite.

suppression of the change of the pH value to the acid region [1]: effectively be suppressed
suppression of the lowering of the transmittance and the coloring [2]: effectively be suppressed
SMILES: O=C1O[C@H]([C@@H](O)CO)C(O)=C1O [ascorbic acid]
